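All cell lines were grown in 96-well plates and treated with compound for 48 hours. GI50 is the concentration that inhibits growth by half.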 The source made the active and inactive calls. Cut-off read from the data, not from the text of the source: active = GI50 up to about 1.1 µM and inactive = higher.
Assays:
Experiment in all cases: NCI tumour cell line growth inhibition, 48 h
[1] = tested on: OVCAR-3
[2] = tested on: IGROV-1
[3] = tested on: NCI/ADR-RES
[4] = tested on: PC-3
[5] = tested on: LOX IMVI
[6] = tested on: SNB-19
[7] = tested on: MDA-MB-231
[8] = tested on: NCI-H23
[9] = tested on: COLO 205
[10] = tested on: DU-145
[11] = tested on: UO-31
[12] = tested on: UACC-257
[13] = tested on: HL-60
[14] = tested on: Malme-3M
[15] = tested on: OVCAR-5
[16] = tested on: A498
[17] = tested on: T47D
[18] = tested on: SK-MEL-2
[19] = tested on: BT-549
[20] = tested on: UACC-62

Structure (SMILES)	GI50 [1]	GI50 [2]	GI50 [3]	GI50 [4]	GI50 [5]	GI50 [6]	GI50 [7]	GI50 [8]	GI50 [9]	GI50 [10]	GI50 [11]	GI50 [12]	GI50 [13]	GI50 [14]	GI50 [15]	GI50 [16]	GI50 [17]	GI50 [18]	GI50 [19]	GI50 [20]
CN(C)CCNc1ccc2c(=O)n(CCN(C)C)c(=O)n3c4ccc(N)cc4c(=O)c1c23	0.0995 µM (active)	< 0.0124 µM (active)	0.259 µM (active)	0.0608 µM (active)	0.0775 µM (active)	0.0261 µM (active)	0.187 µM (active)	0.0361 µM (active)	0.0675 µM (active)	0.0665 µM (active)	0.0382 µM (active)	0.258 µM (active)	0.0434 µM (active)	0.116 µM (active)	0.0998 µM (active)	0.408 µM (active)	0.207 µM (active)	0.117 µM (active)	0.407 µM (active)	0.393 µM (active)
O=C1NC(=O)C(Cc2ccccc2)(c2cccnc2)N1 (stereo not drawn)	> 100 µM (inactive)	> 100 µM (inactive)	> 100 µM (inactive)	> 100 µM (inactive)	> 100 µM (inactive)	> 100 µM (inactive)	> 100 µM (inactive)	> 100 µM (inactive)	> 100 µM (inactive)	> 100 µM (inactive)	> 100 µM (inactive)	> 100 µM (inactive)	> 100 µM (inactive)	> 100 µM (inactive)	> 100 µM (inactive)	> 100 µM (inactive)	> 100 µM (inactive)	> 100 µM (inactive)	> 100 µM (inactive)	> 100 µM (inactive)
CCN(Cc1cc(Cl)cc(C)c1O)Cc1c(O)ccc2ccccc12	15 µM (inactive)	15.3 µM (inactive)	14.8 µM (inactive)	15.5 µM (inactive)	18.2 µM (inactive)	18.5 µM (inactive)	18.4 µM (inactive)	15.6 µM (inactive)	22.7 µM (inactive)	20.2 µM (inactive)	16.2 µM (inactive)	15.8 µM (inactive)	12 µM (inactive)	14.5 µM (inactive)	17.6 µM (inactive)	18.7 µM (inactive)	16.6 µM (inactive)	16.4 µM (inactive)	13.3 µM (inactive)	15.7 µM (inactive)
NS(=O)(=O)c1ccc(Nc2c3ccccc3nc3c(C(=O)NCCO)cccc23)cc1	0.12 µM (active)	0.115 µM (active)	0.408 µM (active)	0.177 µM (active)	0.124 µM (active)	0.0977 µM (active)	0.184 µM (active)	0.132 µM (active)	0.0762 µM (active)	0.165 µM (active)	0.181 µM (active)	0.17 µM (active)	0.243 µM (active)	0.13 µM (active)	0.183 µM (active)	0.105 µM (active)	0.03 µM (active)	0.186 µM (active)	0.145 µM (active)	0.135 µM (active)
CCOC(=O)c1nc2ccc(C(F)(F)F)cc2nc1Oc1cc(OC)cc(OC)c1	> 100 µM (inactive)	41.7 µM (inactive)	> 100 µM (inactive)	> 100 µM (inactive)	> 100 µM (inactive)	68.9 µM (inactive)	> 100 µM (inactive)	–	> 100 µM (inactive)	87.3 µM (inactive)	> 100 µM (inactive)	> 100 µM (inactive)	> 100 µM (inactive)	35.8 µM (inactive)	> 100 µM (inactive)	> 100 µM (inactive)	> 100 µM (inactive)	> 100 µM (inactive)	> 100 µM (inactive)	> 100 µM (inactive)
COC(=O)/C=C1/CCC(C)(C(=O)NS(=O)(=O)c2ccc(C)cc2)C1(C)C (stereo not drawn)	> 100 µM (inactive)	> 100 µM (inactive)	> 100 µM (inactive)	> 100 µM (inactive)	> 100 µM (inactive)	> 100 µM (inactive)	> 100 µM (inactive)	> 100 µM (inactive)	> 100 µM (inactive)	> 100 µM (inactive)	> 100 µM (inactive)	> 100 µM (inactive)	> 100 µM (inactive)	> 100 µM (inactive)	> 100 µM (inactive)	> 100 µM (inactive)	> 100 µM (inactive)	> 100 µM (inactive)	> 100 µM (inactive)	> 100 µM (inactive)
CC(C)(C)N1C(=O)c2ccccc2C1(O)C(F)(F)F (stereo not drawn)	> 100 µM (inactive)	74 µM (inactive)	> 100 µM (inactive)	60.1 µM (inactive)	> 100 µM (inactive)	> 100 µM (inactive)	> 100 µM (inactive)	> 100 µM (inactive)	> 100 µM (inactive)	> 100 µM (inactive)	> 100 µM (inactive)	> 100 µM (inactive)	> 100 µM (inactive)	38 µM (inactive)	> 100 µM (inactive)	> 100 µM (inactive)	53.6 µM (inactive)	> 100 µM (inactive)	> 100 µM (inactive)	> 100 µM (inactive)
CC[C@]12C=CCN3CC[C@@]4(c5cc(N=O)c(OC)cc5N(C)[C@H]4[C@@](O)(C(=O)NC(Cc4c[nH]c5ccccc45)C(=O)OC)[C@@H]1O)[C@@H]32 (stereo partly drawn)	14.4 µM (inactive)	17.7 µM (inactive)	> 100 µM (inactive)	11.5 µM (inactive)	16.7 µM (inactive)	19.9 µM (inactive)	18.3 µM (inactive)	17.7 µM (inactive)	15.4 µM (inactive)	17.2 µM (inactive)	23.1 µM (inactive)	15.1 µM (inactive)	2.87 µM (inactive)	18.6 µM (inactive)	19.5 µM (inactive)	32.4 µM (inactive)	6.93 µM (inactive)	15.3 µM (inactive)	14.9 µM (inactive)	16 µM (inactive)
O=C1[C@H](c2ccccc2)C2c3ccccc3CCN12 (stereo partly drawn)	> 10 µM (inactive)	> 10 µM (inactive)	> 10 µM (inactive)	> 10 µM (inactive)	> 10 µM (inactive)	> 10 µM (inactive)	> 10 µM (inactive)	> 10 µM (inactive)	> 10 µM (inactive)	> 10 µM (inactive)	> 100 µM (inactive)	> 10 µM (inactive)	> 10 µM (inactive)	0.897 µM (active)	> 10 µM (inactive)	> 10 µM (inactive)	> 10 µM (inactive)	> 10 µM (inactive)	> 10 µM (inactive)	> 10 µM (inactive)
C[N+](C)(C)C(C1=CCCC1=O)c1ccccc1 (stereo not drawn)	47.1 µM (inactive)	30.3 µM (inactive)	33.8 µM (inactive)	35.5 µM (inactive)	18.7 µM (inactive)	> 100 µM (inactive)	29 µM (inactive)	45.2 µM (inactive)	> 100 µM (inactive)	57.5 µM (inactive)	> 100 µM (inactive)	22.8 µM (inactive)	25.8 µM (inactive)	19.2 µM (inactive)	> 100 µM (inactive)	> 100 µM (inactive)	43.8 µM (inactive)	84.9 µM (inactive)	37.2 µM (inactive)	18.3 µM (inactive)
CCCCCCC(C)c1ccc2c(c1)C(=O)c1nc3ccncc3c(=O)n1-2 (stereo not drawn)	1.45 µM (inactive)	2.51 µM (inactive)	5.68 µM (inactive)	3.54 µM (inactive)	1.06 µM (active)	4.81 µM (inactive)	2.54 µM (inactive)	2.14 µM (inactive)	2.87 µM (inactive)	14.6 µM (inactive)	2.17 µM (inactive)	2.84 µM (inactive)	0.26 µM (active)	0.235 µM (active)	5.43 µM (inactive)	4.32 µM (inactive)	3.63 µM (inactive)	3.61 µM (inactive)	4.21 µM (inactive)	2.29 µM (inactive)
O=C1/C(=C/c2ccc(O)cc2)Oc2ccccc21	> 100 µM (inactive)	> 100 µM (inactive)	> 100 µM (inactive)	> 100 µM (inactive)	> 100 µM (inactive)	> 100 µM (inactive)	> 100 µM (inactive)	62.7 µM (inactive)	> 100 µM (inactive)	> 100 µM (inactive)	–	> 100 µM (inactive)	35.6 µM (inactive)	> 100 µM (inactive)	> 100 µM (inactive)	> 100 µM (inactive)	> 100 µM (inactive)	> 100 µM (inactive)	> 100 µM (inactive)	> 100 µM (inactive)
OC1CCCCCCCCCCC1[S+]1CCCC1.O[B-](F)(F)F (stereo not drawn)	52.5 µM (inactive)	> 100 µM (inactive)	> 100 µM (inactive)	56.8 µM (inactive)	> 100 µM (inactive)	> 100 µM (inactive)	> 100 µM (inactive)	72.6 µM (inactive)	62.7 µM (inactive)	> 100 µM (inactive)	> 100 µM (inactive)	38.8 µM (inactive)	> 100 µM (inactive)	42 µM (inactive)	> 100 µM (inactive)	> 100 µM (inactive)	> 100 µM (inactive)	> 100 µM (inactive)	> 100 µM (inactive)	> 100 µM (inactive)
CCN(CC)CCNc1ccc(/N=N/c2ccc(S(N)(=O)=O)cc2)c2ccccc12	2.43 µM (inactive)	13.1 µM (inactive)	24.2 µM (inactive)	6.93 µM (inactive)	2.65 µM (inactive)	11.9 µM (inactive)	4.33 µM (inactive)	23.2 µM (inactive)	4.24 µM (inactive)	12 µM (inactive)	5.56 µM (inactive)	14.9 µM (inactive)	14.5 µM (inactive)	15.7 µM (inactive)	23 µM (inactive)	14.1 µM (inactive)	2.55 µM (inactive)	5.9 µM (inactive)	13.6 µM (inactive)	8.61 µM (inactive)

From ChEMBL document CHEMBL1201862, “PubChem BioAssay data set” (2004)
